pEC50, pIC50: −log10 of the molar value.
What was measured:
Cbl-b = molecular target: T1, Cbl-b (Homo sapiens, UniProt Q13191); assay: Cbl-b probe displacement HTRF binding assay; conditions: 0.4 nM biotinylated Cbl-b, 150 nM BODIPY probe
T1 construct: biotin (biotinylated)
Procedure: The affinity with which compounds of the present disclosure bind to Cbl-b was assessed using probe displacement homologous time resolved fluorescence (HTRF) assays. The assays used a BODIPY™ conjugated probe (Example 54 from WO 2020264398) and biotinylated Cbl-b. The assays were performed in assay buffer consisting of 20 mM Hepes, 150 mM NaCl, 0.01% Triton X-100, 0.5 mM TCEP, 0.01% BSA. On the day of the assay, a 20 point, 1:2 master serial dilution of each compound was prepared in DMSO to span a final concentration range of 10 μM to 0 nM. Two hundred nanoliters of diluted compound was added to each well of a 384-well plate. Fifteen microliters of biotinylated—Cbl-b resuspended in assay buffer were added to each well and the plate incubated for 60 minutes at room temperature prior to addition of 5 μL of BODIPY™ probe in assay buffer. Final assay conditions included 0.4 nM of Cbl-b and 150 nM of BODIPY™ probe. After a further 15 minutes of incubation at room temperature, 5 μl of Streptavidin-Terbium cryptate reagent at 5-fold final concentration was added to each well of the 384-well plate. Binding of a probe to Cbl-b results in an increase of HTRF signal. HTRF signal was measured by Envision plate reader, while competition of a compound of the present disclosure with probe results in a decrease of signal. Percentage maximum activity in each test well was calculated based on DMSO (maximum activity, 0% displacement) and no protein control wells (baseline activity, 100% displacement). Binding affinity was determined from a dose response curve fitted using a standard four parameter fit equation. See Table 3 for data for compounds (Cbl-b Binding (IC50)).

Jurkat cells = assay: IL-2 secretion assay in CD3/CD28-activated Jurkat cells (AlphaLISA); format: cell-based, human; conditions: Homo sapiens, CD3/CD28 T Cell Activator, 24 h, IL-2 AlphaLISA
Procedure: Certain compounds were also evaluated in an IL-2 secretion assay. On the day of the assay, a 16 point, 1:2 master serial dilution of each compound was prepared in Opti-MEM to span a final concentration range of 10 μM to 300 pM. Assays were setup in CORNING® tissue culture-treated 384-well microplates containing 60 nL of each dilution. Jurkat cells grown in RPMI-1640 supplemented with 10% FBS, 1% Glutamax, and 1% Pen/Strep were collected, resuspended in Opti-MEM. 50,000 cells/well and added to the compound plates. After a short spin (1200 rpm for 1 min), the plates were incubated at 37° C. for 1 hour. The cells were activated by adding 15 μL of IMUNOCULT™ Human CD3/CD28 T Cell Activator (STEMCELL Technologies) diluted in Opti-MEM. After 24 h of incubation at 37° C., aliquots of culture supernatants were transferred to OptiPlate-384 (PerkinElmer) microplates. The level of IL-2 secretion in the supernatants was then determined using the IL-2 (human) AlphaLISA Detection Kit (PerkinElmer) according to the manufacturer's recommendations. The AlphaLISA signal was measured using an EnVision plate reader (PerkinElmer). EC50 values were determined by fitting the data to a standard 4-parameter logistic equation. See Table 3 for data for select compounds (IL-2 Secretion (EC50)).

T1 sequence (Q13191 whole entry, species assumed): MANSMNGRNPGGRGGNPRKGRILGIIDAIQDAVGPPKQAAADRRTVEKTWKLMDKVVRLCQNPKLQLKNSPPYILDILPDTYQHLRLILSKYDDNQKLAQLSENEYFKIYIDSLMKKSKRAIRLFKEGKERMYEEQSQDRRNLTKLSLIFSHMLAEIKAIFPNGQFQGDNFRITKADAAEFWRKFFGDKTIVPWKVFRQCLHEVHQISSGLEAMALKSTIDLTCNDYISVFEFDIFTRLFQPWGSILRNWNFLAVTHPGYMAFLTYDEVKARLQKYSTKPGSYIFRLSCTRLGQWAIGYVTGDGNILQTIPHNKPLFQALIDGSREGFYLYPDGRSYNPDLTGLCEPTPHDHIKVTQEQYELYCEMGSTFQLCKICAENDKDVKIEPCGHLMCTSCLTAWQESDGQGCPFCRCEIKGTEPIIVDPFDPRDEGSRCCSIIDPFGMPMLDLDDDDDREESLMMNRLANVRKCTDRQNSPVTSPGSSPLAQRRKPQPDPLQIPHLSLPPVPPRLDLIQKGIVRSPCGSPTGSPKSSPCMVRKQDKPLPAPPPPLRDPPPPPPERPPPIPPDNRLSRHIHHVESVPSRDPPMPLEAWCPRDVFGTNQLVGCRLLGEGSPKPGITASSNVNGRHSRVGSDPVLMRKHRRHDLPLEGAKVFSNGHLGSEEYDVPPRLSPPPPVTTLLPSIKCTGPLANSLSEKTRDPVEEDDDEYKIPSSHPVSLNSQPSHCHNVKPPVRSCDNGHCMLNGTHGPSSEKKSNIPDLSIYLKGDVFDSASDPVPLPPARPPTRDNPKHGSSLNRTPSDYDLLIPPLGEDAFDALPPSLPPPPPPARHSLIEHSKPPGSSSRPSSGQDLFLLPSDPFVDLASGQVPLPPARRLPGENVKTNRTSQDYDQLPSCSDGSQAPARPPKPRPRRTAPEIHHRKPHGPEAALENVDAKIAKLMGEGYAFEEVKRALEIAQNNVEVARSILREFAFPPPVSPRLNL

SMILES	pIC50 (Cbl-b)	pEC50 (Jurkat cells)
Cc1c[nH]nc1-c1cc(C#N)ccc1-c1cc(C2CC2)nc(-n2cc(C3CC3)c3cc(CNCC4(O)CCC4)[nH]c3c2=O)c1 [Example 20, 4-[2-cyclopropyl-6-[4-cyclopropyl-2-[[(1-hydroxycyclobutyl)methylamino]-methyl]-7-oxo-1H-pyrrolo[2,3-c]pyridin-6-yl]pyridin-4-yl]-3-(4-methyl-1H-pyrazol-3-yl)benzonitrile]	> 7.00	6.00 to 7.00
Cc1c[nH]nc1-c1cc(F)ccc1-c1cccc(-n2cc(C3CC3)c3cc(CN4CCC[C@H](C)C4)[nH]c3c2=O)c1 [Example 21, 4-cyclopropyl-6-[3-[4-fluoro-2-(4-methyl-1H-pyrazol-3-yl)phenyl]phenyl]-2-[[(3S)-3-methylpiperidin-1-yl]methyl]-1H-pyrrolo[2,3-c]pyridin-7-one]	> 7.00	6.00 to 7.00
Cc1c[nH]nc1-c1cc(C#N)ccc1-c1cc(C2CC2)nc(-n2cnc3cc(CN4CCC[C@H](C)C4)[nH]c3c2=O)c1 [Example 22, 4-[2-cyclopropyl-6-[6-[[(3S)-3-methylpiperidin-1-yl]methyl]-4-oxo-5H-pyrrolo[3,2-d]pyrimidin-3-yl]pyridin-4-yl]-3-(4-methyl-1H-pyrazol-3-yl)benzonitrile]	> 7.00	> 7.00
C[C@H]1CCCN(Cc2cc3c(C4CC4)cn(-c4cc(-c5ccc(F)cc5-c5cncn5C)cc(Cl)n4)c(=O)c3[nH]2)C1 [Example 23, 2-{[(S)-3-methyl-1-piperidyl]methyl}-6-{6-chloro-4-[4-fluoro-2-(1-methyl-5-imidazolyl)phenyl]-2-pyridyl}-4-cyclopropyl-1,6-dihydro-1,6-diaza-7-indenone]	5.30 to 6.00	< 5.30
C[C@H]1CCCN(Cc2cc3c(C4CC4)cn(-c4cc(-c5ccc(F)cc5-c5cncn5C)cc(C5CC5)n4)c(=O)c3[nH]2)C1 [Example 24, 2-{[(S)-3-Methyl-1-piperidyl]methyl}-4-cyclopropyl-6-{6-cyclopropyl-4-[4-fluoro-2-(1-methyl-5-imidazolyl)phenyl]-2-pyridyl}-1,6-dihydro-1,6-diaza-7-indenone]	6.00 to 7.00	5.30 to 6.00
C[C@H]1CCCN(Cc2cc3c(C4CC4)cn(-c4cc(-c5c(-c6nncn6C)cnn5C)cc(Cl)n4)c(=O)c3[nH]2)C1 [Example 25, 2-{[(S)-3-Methyl-1-piperidyl]methyl}-6-{6-chloro-4-[1-methyl-4-(4-methyl-4H-1,2,4-triazol-3-yl)-5-pyrazolyl]-2-pyridyl}-4-cyclopropyl-1,6-dihydro-1,6-diaza-7-indenone]	> 7.00	> 7.00
Cn1cnnc1-c1cc(F)ccc1-c1cc(C2CC2)nc(-n2cc(C(F)(F)F)c3c(C#N)n[nH]c3c2=O)c1 [Example 26, 6-{6-cyclopropyl-4-[4-fluoro-2-(4-methyl-4H-1,2,4-triazol-3-yl)phenyl]-2-pyridyl}-7-oxo-4-(trifluoromethyl)-1,6-dihydro-1,2,6-triaza-3-indenecarbonitrile]	> 7.00	5.30 to 6.00
Cn1cnnc1-c1cc(F)ccc1-c1cc(C2CC2)nc(-n2cc(C#N)c3c(C#N)n[nH]c3c2=O)c1 [Example 27, 6-{6-cyclopropyl-4-[4-fluoro-2-(4-methyl-4H-1,2,4-triazol-3-yl)phenyl]-2-pyridyl}-7-oxo-1,6-dihydro-1,2,6-triaza-3,4-indenedicarbonitrile]	6.00 to 7.00	< 5.30
COCCNCc1cc2ncn(-c3cc(-c4ccc(F)cc4-c4nncn4C)cc(C4CC4)n3)c(=O)c2[nH]1 [Example 28, 3-[6-cyclopropyl-4-[4-fluoro-2-(4-methyl-1,2,4-triazol-3-yl)phenyl]pyridin-2-yl]-6-[(2-methoxyethylamino)methyl]-5H-pyrrolo[3,2-d]pyrimidin-4-one]	> 7.00	> 7.00
Cn1cnnc1-c1cc(F)ccc1-c1cc(C2CC2)nc(-n2cnc3cc(CNC4(C)CCC4)[nH]c3c2=O)c1 [Example 29, 3-[6-cyclopropyl-4-[4-fluoro-2-(4-methyl-1,2,4-triazol-3-yl)phenyl]pyridin-2-yl]-6-[[(1-methylcyclobutyl)amino]methyl]-5H-pyrrolo[3,2-d]pyrimidin-4-one]	> 7.00	> 7.00
Cn1cnnc1-c1cc(F)ccc1-c1cc(C2CC2)nc(-n2cnc3cc(CNCCOC(F)(F)F)[nH]c3c2=O)c1 [Example 30, 6-{6-cyclopropyl-4-[4-fluoro-2-(4-methyl-4H-1,2,4-triazol-3-yl)phenyl]-2-pyridyl}-2-[(2-trifluoromethoxyethylamino)methyl]-1,6-dihydro-1,4,6-triaza-7-indenone]	> 7.00	6.00 to 7.00
CCOCCNCc1cc2ncn(-c3cc(-c4ccc(F)cc4-c4nncn4C)cc(C4CC4)n3)c(=O)c2[nH]1 [Example 31, 6-{6-cyclopropyl-4-[4-fluoro-2-(4-methyl-4H-1,2,4-triazol-3-yl)phenyl]-2-pyridyl}-2-[(2-ethoxyethylamino)methyl]-1,6-dihydro-1,4,6-triaza-7-indenone]	> 7.00	> 7.00
COC1CN(Cc2cc3ncn(-c4cc(-c5ccc(F)cc5-c5nncn5C)cc(C5CC5)n4)c(=O)c3[nH]2)C1 [Example 32, 6-{6-cyclopropyl-4-[4-fluoro-2-(4-methyl-4H-1,2,4-triazol-3-yl)phenyl]-2-pyridyl}-2-[(3-methoxy-1-azetidinyl)methyl]-1,6-dihydro-1,4,6-triaza-7-indenone]	> 7.00	6.00 to 7.00
Cn1cnnc1-c1cc(F)ccc1-c1cc(C2CC2)nc(-n2cnc3cc(CNCC(F)(F)F)[nH]c3c2=O)c1 [Example 33, 6-{6-cyclopropyl-4-[4-fluoro-2-(4-methyl-4H-1,2,4-triazol-3-yl)phenyl]-2-pyridyl}-2-[(2,2,2-trifluoroethylamino)methyl]-1,6-dihydro-1,4,6-triaza-7-indenone]	> 7.00	6.00 to 7.00
COCCN(C)Cc1cc2ncn(-c3cc(-c4ccc(F)cc4-c4nncn4C)cc(C4CC4)n3)c(=O)c2[nH]1 [Example 34, 3-[6-cyclopropyl-4-[4-fluoro-2-(4-methyl-1,2,4-triazol-3-yl)phenyl]pyridin-2-yl]-6-[[2-methoxyethyl(methyl)amino]methyl]-5H-pyrrolo[3,2-d]pyrimidin-4-one]	> 7.00	> 7.00
COCCN(Cc1cc2ncn(-c3cc(-c4ccc(F)cc4-c4nncn4C)cc(C4CC4)n3)c(=O)c2[nH]1)CC(F)(F)F [Example 35, 6-{6-cyclopropyl-4-[4-fluoro-2-(4-methyl-4H-1,2,4-triazol-3-yl)phenyl]-2-pyridyl}-2-{[(2-methoxyethyl)(2,2,2-trifluoroethyl)amino]methyl}-1,6-dihydro-1,4,6-triaza-7-indenone]	> 7.00	6.00 to 7.00
COCCNC(c1cc2ncn(-c3cc(-c4ccc(F)cc4-c4nncn4C)cc(C4CC4)n3)c(=O)c2[nH]1)C(F)(F)F (centres unmarked) [Example 36, 6-{6-cyclopropyl-4-[4-fluoro-2-(4-methyl-4H-1,2,4-triazol-3-yl)phenyl]-2-pyridyl}-2-[2,2,2-trifluoro-1-(2-methoxyethylamino)ethyl]-1,6-dihydro-1,4,6-triaza-7-indenone]	> 7.00	6.00 to 7.00
Cn1cnnc1-c1cc(C#N)ccc1-c1cc(C2CC2)nc(-n2cc(C3CC3)c3cc(CNC4(C)CCC4)[nH]c3c2=O)c1 [Example 37, 4-(6-cyclopropyl-2-{4-cyclopropyl-2-[(1-methylcyclobutylamino)methyl]-7-oxo-1,6-dihydro-1,6-diaza-6-indenyl}-4-pyridyl)-3-(4-methyl-4H-1,2,4-triazol-3-yl)benzonitrile]	> 7.00	> 7.00
COCCOCc1cc2ncn(-c3cc(-c4ccc(F)cc4-c4nncn4C)cc(C4CC4)n3)c(=O)c2[nH]1 [Example 38, 6-{6-cyclopropyl-4-[4-fluoro-2-(4-methyl-4H-1,2,4-triazol-3-yl)phenyl]-2-pyridyl}-2-[(2-methoxyethoxy)methyl]-1,6-dihydro-1,4,6-triaza-7-indenone]	> 7.00	6.00 to 7.00

Source: US20250011318A1 (ARCUS BIOSCIENCES, INC., priority 2023, published 2025)
